The star is where a group is joined. Palmitoyl = CCCCCCCCCCCCCCCC(=O)*
Columns and labels:
[1] = test system: Fibrillin-1; assay: Immunofluorescence of Fibrillin-1 expression by HDF cells; format: cell-based, human; conditions: HDFs, 5 days
Procedure: Immunofluorescence relies on the use of antibodies to label a specific protein with a fluorescent dye such as fluorescein isothiocyanate (FITC). In the following experiments, indirect immunofluorescence is used where a primary antibody first recognises and attaches to the specific protein, in this case fibrillin-1, and then a secondary antibody conjugated with FITC directed against the primary antibody is used for detection.
(§1) For all experiments, the control liquid stock was prepared by dissolving the powdered peptides in DMSO (Dimethyl Sulfoxide solvent). Peptide powders were dissolved in DMSO at recommended part per million concentrations and then further diluted in the cell culture medium and combined to obtain the desired peptide ratio.
Fibrillin-1 expression was determined using immunofluorescence. Primary human dermal fibroblast (HDF) cells were purchased from Promo Cell and came from a donor. Cells were grown in wells of 96 well black walled clear bottomed plates (Peirce, Thermo Fisher). Cells were cultured in HDF media (PromoCell) supplemented with Basic Fibroblast Growth Factor (recombinant human), 1 ng/ml and Insulin 5 μg/ml. Cells were cultured for 5 days in the presence of the tetrapeptides, changing media and peptides every 48 hours, followed by immunofluorescence assessment. At the time of treatment cells were at passage 3-4. After 5 days the media was discarded, and cells fixed with methanol. The Fibrillin-1 fibre formation was probed using primary Fibrillin-1 monoclonal antibody (11C1.3; mouse monoclonal antibody (Thermo Fisher) 1 in 100 dilution overnight) designed to detect Fibrillin-1 protein. The Fibrillin-1 fibre formation was then probed with a secondary Goat anti-mouse IgG Thermo Fisher (1 part antibody in 1000 buffer solution for 1 hour) which includes a fluorescent tag designed to reveal the primary antibody binding pattern.
The antibody binding to Fibrillin-1 fibres was visualised using a Nikon Eclipse 100 microscope fluorescence setting using an excitation lens for fluorescein isothiocyanate (FITC). Images were taken using 6 second UV exposure. ImageJ software was used to quantify the Fibrillin-1 fibre abundance and coverage in each image using a threshold of 235 measuring the fibre density.
Results are expressed as a percentage increase in fibrillin abundance compared to untreated control.
Fibrillin-1 expression by HDF cells treated with tetrapeptides conforming to the LSXX structure (Pal-LSPG-OH, Pal-LSPD-OH and Pal-LSVD-OH) and a tetrapeptide not conforming to the LSXX structure (Pal-GYIL-OH), are presented in the table below (table 2). The peptide concentration used offered the highest yield of Fibrillin-1 production.

[2] = test system: HSPA8; assay: LC-MS/MS relative protein abundance in HDF secretome/matrisome: HSPA8; format: cell-based, human; conditions: HDFs, peptide 8 ppm, seven-day culture, secretome + matrisome
Procedure: (§2) Following incubation with the peptides, liquid chromatography tandem mass spectrometry (LC-MS/MS) was used to quantify the relative abundance differences between proteins identified in the secretome/matrisome, versus an untreated control. HDFs from a donor, plated at 50,000 cells per well, were cultured with either peptide dissolved in cell culture media to achieve a final concentration of 8 ppm or with media without any peptide as a negative control. Treated and control cells were tested in triplicate. The cells were cultured as normal for five days in serum-supplemented media and then for a further two days in serum-free media (seven-day culture in total). The cell media containing the secretome (the proteins secreted by the cell) and the ECM, decellularized by incubation with EDTA (ethylenediaminetetraacetic acid), containing the matrisome (the collection of ECM associated proteins) were collected. The combined secretome and the matrisome compartments were subsequently analysed by LC-MS/MS using the following protocol.
(§3) Proteins were denatured (in urea), reduced (in dithiothreitol) and mechanically disassociated (using ultrasonication) prior to overnight digestion with trypsin (SMART Digest™ trypsin kit; Thermo Fisher). After digestion, samples were cleaned of contaminants up by removal of organic molecules and surfactants using biphasic extraction and desalted using OLIGO™ R3 Reversed Phase Resin (Thermo Fisher).
(§4) Samples (200 ng) were ran on an UltiMate® 3000 Rapid Separation Liquid Chromatographer coupled to a Q Exactive™ Hybrid Quadrupole-Orbitrap™ Mass Spectrometer for 90-minutes per sample run. Spectral data was searched again the Uniprot Human proteome database using Mascot v2.5.1. Subsequent protein identification and data-dependent quantification was performed using Progenesis QI. Normalised protein abundances were compared between each peptide treatment and control. Statistical analysis was performed within Progenesis QI using a between sample ANOVA.
(§5) The mass spectrometry data for each peptide is shown below in table 3 and FIG. 1. Changes in protein synthesis abundance due to each peptide are described below, including changes to specific proteins and the protein families they belong to (table 3). […] These protein families were as follows: antioxidants, cell stress proteins, ECM cleaving enzymes and ECM adhesion proteins; functional protein families all with a potentially important role in dermal repair and remodelling.

[3] = test system: Decorin; assay: ELISA of decorin in culture supernatant of human dermal fibroblasts; format: cell-based; conditions: HDFs, 72 hours, ELISA weighted to viable cells
Procedure: (§6) An ELISA is an immunological assay commonly used to measure presence and abundance of a specific proteins (antibodies, antigens, proteins and glycoproteins) in biological samples. In this case ELISAs are being used to quantify the expression of dermal extracellular proteins collagen-1, decorin and fibronectin. The quantity of collagen I is evaluated via the quantity of PIP (“carboxU-terminal pro-peptide of procollagen type I”) which is a peptide fragment resulting from the enzymatic degradation of procollagen present outside the fibroblast in the culture supernatant medium.
as §1
(§7) Normal human dermal fibroblasts cells (HDFs) were cultured in contact with the tetrapeptides of the present invention, or composition without the peptide (negative control), for 72 hours. Thereafter the cultured supernatants were removed, and the quantity of dermal extracellular proteins determined using an ELISA assay for the protein of interest. For the ELISA quantification, cell viability was calculated using Hoechst staining allowing the quantity of dermal proteins to be weighted to the number of viable cells.
(§8) The effect of LSXX tetrapeptides on ECM protein expression by fibroblasts as measured by ELISA (columns 1 to 3) versus a tetrapeptide not conforming to the LSXX structure (column 4) are presented in the table below (table 1). Results are expressed as % increase versus the negative control.

[4] = test system: human dermal fibroblasts; assay: LC-MS/MS overall protein synthesis and functional protein families in HDFs (FIG. 1 bubble plot); format: cell-based; conditions: peptide 8 ppm, seven-day culture
Procedure: as §2, §3, §4, §5
In the bubble plot, the larger the bubble size, the stronger the enhancement of proteins within that protein family.

[5] = test system: PRDX4; assay: LC-MS/MS relative protein abundance in HDF secretome/matrisome: PRDX4; format: cell-based, human; conditions: HDFs, peptide 8 ppm, seven-day culture, secretome + matrisome
Procedure: as §2, §3, §4, §5

[6] = test system: HSP90B1; assay: LC-MS/MS relative protein abundance in HDF secretome/matrisome: HSP90B1; format: cell-based, human; conditions: HDFs, peptide 8 ppm, seven-day culture, secretome + matrisome
Procedure: as §2, §3, §4, §5

[7] = test system: CD44; assay: LC-MS/MS relative protein abundance in HDF secretome/matrisome: CD44; format: cell-based, human; conditions: HDFs, peptide 8 ppm, seven-day culture, secretome + matrisome
Procedure: as §2, §3, §4, §5

[8] = test system: CTSL; assay: LC-MS/MS relative protein abundance in HDF secretome/matrisome: CTSL; format: cell-based, human; conditions: HDFs, peptide 8 ppm, seven-day culture, secretome + matrisome
Procedure: as §2, §3, §4, §5

[9] = test system: Collagen I (PIP); assay: ELISA of Collagen I (PIP) in culture supernatant of human dermal fibroblasts; format: cell-based; conditions: HDFs, 72 hours, ELISA weighted to viable cells
Procedure: as §6, §1, §7
The quantity of Collagen I is evaluated via the quantity of PIP (“carboxU-terminal pro-peptide of procollagen type I”) which is a peptide fragment resulting from the enzymatic degradation of procollagen present outside the fibroblast in the culture supernatant medium.
as §8

[10] = test system: Fibronectin; assay: ELISA of fibronectin in culture supernatant of human dermal fibroblasts; format: cell-based; conditions: HDFs, 72 hours, ELISA weighted to viable cells
Procedure: as §6, §1, §7, §8

[11] = test system: SOD1; assay: LC-MS/MS relative protein abundance in HDF secretome/matrisome: SOD1; format: cell-based, human; conditions: HDFs, peptide 8 ppm, seven-day culture, secretome + matrisome
Procedure: as §2, §3, §4, §5

| Substance | Fibrillin-1, percentage increase in fibrillin abundance compared to untreated control ([1]; peptide 10 ppm) | HSPA8 (Cell stress) protein enhanced versus untreated control [2] | Decorin, % increase versus the negative control ([3]; peptide 5 ppm) | overall protein synthesis / expression in comparison to the control [4] | PRDX4 (Antioxidants) protein enhanced versus untreated control [5] | HSP90B1 (Cell stress) protein enhanced versus untreated control [6] | CD44 (ECM adhesion) protein enhanced versus untreated control [7] | CTSL (ECM cleaving enzymes) protein enhanced versus untreated control [8] | Collagen I (PIP), % increase versus the negative control ([9]; peptide 5 ppm) | Fibronectin, % increase versus the negative control ([10]; peptide 5 ppm) | SOD1 (Antioxidants) protein enhanced versus untreated control [11] | Fibrillin-1, percentage increase in fibrillin abundance compared to untreated control ([1]; peptide 4 ppm) | Fibrillin-1, percentage increase in fibrillin abundance compared to untreated control ([1]; peptide 8 ppm) | Decorin, % increase versus the negative control ([3]; peptide 3 ppm) | Collagen I (PIP), % increase versus the negative control ([9]; peptide 3 ppm) | Fibronectin, % increase versus the negative control ([10]; peptide 3 ppm) |
| --- | --- | --- | --- | --- | --- | --- | --- | --- | --- | --- | --- | --- | --- | --- | --- | --- |
| Pal-LSVD-OH (Palmitoyl-LSVD-OH; SMILES CCCCCCCCCCCCCCCC(=O)N[C@@H](CC(C)C)C(=O)N[C@@H](CO)C(=O)N[C@H](C(=O)N[C@@H](CC(=O)O)C(=O)O)C(C)C) [N-palmitoyl tetrapeptide Leu-Ser-Val-Asp, free C-terminus; LSXX tetrapeptide of the invention] | +151% | +48% | +131% | overall enhancement of protein synthesis | +120% | +49% | +57% | +42% | +29% | +24% | +35% | – | – | – | – | – |
| Pal-LSPD-OH (Palmitoyl-LSPD-OH; SMILES CCCCCCCCCCCCCCCC(=O)N[C@@H](CC(C)C)C(=O)N[C@@H](CO)C(=O)N1CCC[C@H]1C(=O)N[C@@H](CC(=O)O)C(=O)O) [N-palmitoyl tetrapeptide Leu-Ser-Pro-Asp, free C-terminus; LSXX tetrapeptide of the invention] | – | – | +24% | – | – | – | – | – | +82% | +92% | – | +98% | – | – | – | – |
| Pal-EKGD-OH [reference compound] | – | ns | – | no or limited protein expression | ns | ns | +29% | ns | – | – | ns | – | – | – | – | – |
| Pal-GYIL-OH [reference compound] | +3% | – | +2% | – | – | – | – | – | −4% | −23% | – | – | – | – | – | – |
| Pal-QTAV-OH [reference compound] | – | +18% | – | no or limited protein expression | ns | +30% | +32% | +18% | – | – | ns | – | – | – | – | – |
| Pal-LSPG-OH (Palmitoyl-LSPG-OH; SMILES CCCCCCCCCCCCCCCC(=O)N[C@@H](CC(C)C)C(=O)N[C@@H](CO)C(=O)N1CCC[C@H]1C(=O)NCC(=O)O) [N-palmitoyl tetrapeptide Leu-Ser-Pro-Gly, free C-terminus; LSXX tetrapeptide of the invention] | – | +46% | – | overall enhancement of protein synthesis | +362% | +105% | +120% | +107% | – | – | +50% | – | +111% | +39% | +25% | +82% |

— patent US20230416304A1, “TETRAPEPTIDE AND COMPOSITIONS COMPRISING TETRAPEPTIDES” (THE BOOTS COMPANY PLC, priority 2020, published 2023)
